The results in this text go back to patent US9132126B2, “Phenyl-isoxazole derivatives and preparation process thereof” (priority 2011, dated 2015).

This test has as its system Oseltamivir resistant strain virus. As to the kind of experiment: microbe, parasite or virus in culture. In kind it is cell-based, influenza virus.
Where [1] appears, read: unidentified influenza virus, read-out: EC50.

Values after ≈ are worked out from the molar mass of the structure shown. Like-named read-outs stand apart in the source and are kept apart here.

Broadly, the EC50 is the concentration at which the effect is half-maximal. `CCOC(=O)C1=C[C@@H](OC(CC)CC)[C@H](NC(C)=O)[C@@H](N)C1` [Oseltamivir, reference compound]: the SI value was 12.5 to 25. Also, under setting [1], the 50% effective concentration (EC50) is 50 mg/L (≈ 160 µM).

Take `COc1cccc(N2CCN(C(=O)c3c(-c4ccccc4Cl)noc3N)CC2)c1` [Example 60, (5-amino-3-(2-chlorophenyl)isoxazol-4-yl)(4-(3-methoxyphenyl)piperazine-1-yl)methanone]: for the setting “in words”, the “antiviral activity effect on a virus strain resistant to Oseltamivir (tamiflu)” value (from here on “antiviral activity effect”) is “high antiviral activity effect”. Besides, the EC50 under setting [1] fell in the range of 0.053 to 0.094 mg/L (≈ 0.128 to 0.228 µM).

Turning to `CCOC(=O)C1CCN(C(=O)c2c(-c3ccccc3OC(F)(F)F)noc2N)CC1` [Example 124], the SI value is recorded as 12.5 and the “antiviral activity effect” value is listed as “high antiviral activity effect”. The concentration giving a half-maximal response (EC50) (Oseltamivir resistant strain) turned out to be 25 mg/L (≈ 58.5 µM).

In turn, `Cc1onc(-c2ccccc2OC(F)(F)F)c1C(=O)N1CCN(c2ccc(Cl)c(Cl)c2)CC1` [Example 35, (4-(3,4-dichlorophenyl)piperazine-1-yl)(5-methyl-3-(2-(trifluoromethoxy)phenyl)isoxazol-4-yl)methanone] had an SI value of 1602.564 to 3205.128. Also, the “antiviral activity effect” value (in words) was “high antiviral activity effect”. Moreover, the EC50 under setting [1] is 0.195 mg/L (≈ 0.39 µM).

`COc1cccc(N2CCN(C(=O)c3c(-c4ccccc4Cl)noc3C)CC2)c1` [Example 9, (3-(2-chlorophenyl)-5-methylisoxazol-4-yl)(4-(3-methoxyphenyl)piperazine-1-yl)methanone] registered an SI value of 3221.649 to 13020.833. Moreover, the “antiviral activity effect” value (in words) is given as “high antiviral activity effect”. Besides, the EC50 under setting [1] was 0.048 to 0.097 mg/L (≈ 0.117 to 0.236 µM).

For the compound `COc1cccc(N2CCN(C(=O)c3c(-c4cccc(F)c4)noc3C)CC2)c1` [Example 12, (3-(3-fluorophenyl)-5-methylisoxazol-4-yl)(4-(3-methoxyphenyl)piperazine-1-yl)methanone], the SI value is reported as 50.016 to 100.032. Besides, the “antiviral activity effect” value (in words) is recorded as “high antiviral activity effect”. Moreover, the EC50 under setting [1] came to 1.56 mg/L (≈ 3.95 µM).

`COc1cccc(N2CCN(C(=O)c3c(-c4ccccc4C(F)(F)F)noc3C)CC2)c1` [Example 3, (4-(3-methoxyphenyl)piperazine-1-yl)(5-methyl-3-(2-(trifluoromethyl)phenyl)isoxazol-4-yl)methanone] registered an SI value of 3276.59 to 9812.50. Also, under “in words”, the “antiviral activity effect” value is recorded as “high antiviral activity effect”. In addition, the concentration for a half-maximal effect (EC50) under setting [1] was 0.064 to 0.094 mg/L (≈ 0.144 to 0.211 µM).

As for `Cc1onc(-c2cccc(F)c2)c1C(=O)N1CCN(c2ccc(Cl)c(Cl)c2)CC1` [Example 11, (4-(3,4-dichlorophenyl)piperazine-1-yl)(3-(3-fluorophenyl)-5-methylisoxazol-4-yl)methanone], the SI value fell in the range of 1471.794 to 3205.128. In addition, under “in words”, the “antiviral activity effect” value is recorded as “high antiviral activity effect”. Also, the EC50 under setting [1] stood at 0.195 mg/L (≈ 0.449 µM).

For `COc1ccccc1N1CCN(C(=O)c2c(-c3ccccc3C(F)(F)F)noc2C)CC1` [Example 4], the SI value is reported as 1.563 to 3.125 and the “antiviral activity effect” value was “high antiviral activity effect”. In addition, the EC50 (Oseltamivir resistant strain) worked out at 50 mg/L (≈ 112 µM).

`Cc1onc(-c2cccc(F)c2)c1C(=O)N1CCN(c2ccccc2O)CC1` [Example 16, (3-(3-fluorophenyl)-5-methylisoxazol-4-yl)(4-(2-hydroxyphenyl)piperazine-1-yl)methanone] showed an SI value of 100.032 to 200.321. Moreover, the “antiviral activity effect” value (in words) is reported as “high antiviral activity effect”. Besides, the half-maximal effective concentration (EC50) under setting [1] was in the range of 0.39 to 0.781 mg/L (≈ 1.02 to 2.05 µM).
